The results in this text go back to patent US10239849B2 (Merck Sharp & Dohme Corp., priority 2015, dated 2019).

Assay [1] concerns the target T1, glutathione-S-transferase (GST) tagged LXRalpha LBD (ligand binding domain) (Homo sapiens, UniProt Q13133).
T1 construct: purchased Invitrogen pv4655
T1 sequence (Q13133 209-447 limits assumed): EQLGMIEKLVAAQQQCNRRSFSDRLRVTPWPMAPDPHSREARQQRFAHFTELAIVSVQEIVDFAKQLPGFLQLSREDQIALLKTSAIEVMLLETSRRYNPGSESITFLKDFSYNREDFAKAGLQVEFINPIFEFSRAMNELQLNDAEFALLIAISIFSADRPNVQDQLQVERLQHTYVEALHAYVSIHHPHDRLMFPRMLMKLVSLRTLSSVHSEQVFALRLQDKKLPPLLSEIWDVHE
The experiment in a line: LanthaScreen TR-FRET Liver X Receptor Coactivator Assay, LXR alpha-LBD. It counts as biochemical. Particulars: for Emax: efficacy in relation to reference dual agonist T1317, read-out: LXR alpha activity at max dose (%) (Emax); for EC50 / LXR alpha IP (nM): potency (Inflection Point) of co-activator recruitment, TR-FRET; for EC50: read-out: LXR alpha IP. In outline: (§1)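 TR-FRET coactivator recruitment read-out: compounds first received either LBD, followed by a mix of terbium-labelled anti-GST antibody and fluorescein coactivator peptide. Signal measured by time-resolved FRET once plates had incubated at room temperature.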

For assay [2], the target named is T2, glutathione-S-transferase (GST) tagged LXRbeta LBD (ligand binding domain) (Homo sapiens, UniProt P55055).
T2 construct: purchased Invitrogen pv4658.pps
T2 sequence (P55055 222-460 limits assumed): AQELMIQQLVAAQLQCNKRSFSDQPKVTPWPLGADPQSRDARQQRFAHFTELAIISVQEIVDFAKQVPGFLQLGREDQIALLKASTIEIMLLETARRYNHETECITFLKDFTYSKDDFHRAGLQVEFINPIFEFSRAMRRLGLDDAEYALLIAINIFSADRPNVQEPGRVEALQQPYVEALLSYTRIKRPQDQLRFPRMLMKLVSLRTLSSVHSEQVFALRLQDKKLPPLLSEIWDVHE
The experiment in a line: LanthaScreen TR-FRET Liver X Receptor Coactivator Assay, LXR beta-LBD. In kind it is biochemical. Particulars: for Emax: efficacy in relation to reference dual agonist T1317, read-out: LXR beta activity at max dose (%) (Emax); for EC50: potency (Inflection Point) of co-activator recruitment, TR-FRET, read-out: LXR beta IP. In a few lines:
as §1

As a reminder, the Emax is the size of the effect at its maximum, as opposed to the concentration needed. Consider `CC(C)C(O)(C(=O)N1CCN(c2ccc(-c3ccc(C(=O)N(C)C)c(Cl)c3)cc2)CC1)C(F)(F)F` (stereo not shown) [Example 4-18, 3-chloro-4′-{4-[2-hydroxy-3-methyl-2-(trifluoromethyl)butanoyl]piperazin-1-yl}-N,N-dimethylbiphenyl-4-carboxamide], for which the values for the Emax in assay [1] and in assay [2] were 20% and 65%, respectively. The EC50 in assay [1] is 1290 nM; in assay [2], 259 nM.
As to `C=Cc1cc(-c2ccc(C(=O)N(C)C)c(Cl)c2)cnc1N1CCN(C(=O)OC(C)(C)C)CC1` [Example 9-2, tert-butyl 4-{5-[3-chloro-4-(dimethylcarbamoyl)phenyl]-3-ethenylpyridin-2-yl}piperazine-1-carboxylate], in assay [1], the maximal response (Emax) worked out at 38% and the EC50 worked out at 3440 nM. Further, in assay [2], the Emax amounted to 49% and the EC50 amounted to 161 nM.
Taken in the same sequence, the figures for `CN(C)C(=O)c1ccc(-c2ccc(N3CCN(S(=O)(=O)c4c(Cl)cccc4Cl)CC3)c(Cl)c2)cc1Cl` [Example 4-8, 3,3′-dichloro-4′-{4-[(2,6-dichlorophenyl)sulfonyl]piperazin-1-yl}-N,N-dimethylbiphenyl-4-carboxamide] were 38%, 10500 nM, 101% and 2820 nM.
`CN(CCO)C(=O)c1ccc(-c2cnc(N3CCN(C(=O)OC(C)(C)C)CC3)c(C#N)c2)cc1Cl` [Example 5-1, tert-butyl-4-(5-{3-chloro-4-[(2-hydroxyethyl)(methyl)carbamoyl]phenyl}-3-cyanopyridin-2-yl)piperazine-1-carboxylate]: the maximal effect (Emax) in assay [1] came out at 68%; in assay [2] it was 80%. Further, the EC50 was 1260 nM in assay [1] and 40 nM in assay [2].
In the case of `CN(C)C(=O)c1ccc(-c2cnc(N3CCN(C(=O)C(O)(c4ccccc4Cl)C(F)(F)F)CC3)c(C#N)c2)cc1Cl` (stereo not shown) [Example 2-38, 2-chloro-4-(6-{4-[2-(2-chlorophenyl)-3,3,3-trifluoro-2-hydroxypropanoyl]piperazin-1-yl}-5-cyanopyridin-3-yl)-N,N-dimethylbenzamide], the Emax in assay [1] stood at 18%; in assay [2] it was 69%. Further, the figures for the EC50 in assay [1] and in assay [2] were 292 nM and 13 nM, respectively.
In the case of `CN(C)C(=O)c1c(Cl)cc(-c2cnc(N3CC4CCC3CN4C(=O)OC(C)(C)C)c(C#N)c2)cc1Cl` (stereo not shown) [Example 7-4, tert-butyl 5-(3-cyano-5-(3,5-dichloro-4-(dimethylcarbamoyl)phenyl)pyridin-2-yl)-2,5-diazabicyclo[2.2.2]octane-2-carboxylate], the Emax in assay [1] is 11%; in assay [2], 62%. The EC50 in assay [1] came to 671 nM; in assay [2] it was 49 nM.
As to `CN(CCn1cncn1)C(=O)c1ccc(-c2cnc(N3CCN(C(=O)OC(C)(C)C)CC3)c(C#N)c2)cc1Cl` [Example 5-24, tert-butyl 4-[5-(3-chloro-4-{methyl[2-(1H-1,2,4-triazol-1-yl)ethyl]carbamoyl}phenyl)-3-cyanopyridin-2-yl]piperazine-1-carboxylate], in assay [1], the Emax was found to be 52% and the EC50 stood at 8460 nM. Besides, in assay [2], the maximum response (Emax) was 71% and the EC50 was 118 nM.
Regarding `CN(C)C(=O)c1ccc(-c2cnc(N3CCN(C(=O)[C@@](C)(O)C(F)(F)F)CC3)c(C#N)c2)cc1Cl` [Example 2-15, 2-chloro-4-(5-cyano-6-{4-[(2R)-3,3,3-trifluoro-2-hydroxy-2-methylpropanoyl]piperazin-1-yl}pyridin-3-yl)-N,N-dimethylbenzamide], the Emax in assay [1] came to 58%; in assay [2] it was 101%. Moreover, the EC50 in assay [1] amounted to 13100 nM; in assay [2], 171 nM.
Consider `CN(C)C(=O)c1ccc(-c2cnc(N3CCN(C(=O)OCc4c(Cl)cccc4Cl)CC3)c(C#N)c2)cc1Cl` [Example 3-1, 2,6-dichlorobenzyl4-{5-[3-chloro-4-(dimethylcarbamoyl)phenyl]-3-cyanopyridin-2-yl}piperazine-1-carboxylate], for which the Emax in assay [1] turned out to be 60%; in assay [2] it was 119%. In addition, the results for the EC50 in assay [1] and in assay [2] were 2310 nM and 12 nM, respectively.
With `Cc1noc(C)c1CC(=O)N1CCN(c2ncc(-c3ccc(C(=O)N(C)C)c(Cl)c3)cc2C#N)CC1` [Example 2-14, 2-chloro-4-(5-cyano-6-{4-[(3,5-dimethylisoxazol-4-yl)acetyl]piperazin-1-yl}pyridin-3-yl)-N,N-dimethylbenzamide], in assay [1], the Emax worked out at 23% and the “LXR alpha IP (nM)” value is reported as “No IP”. Also, in assay [2], the Emax was found to be 77% and the EC50 is 1350 nM.
As to `CN(C)C(=O)c1ccc(-c2cnc(N3CCN(C(=O)C4Cc5ccccc54)CC3)c(C#N)c2)cc1Cl` (stereo not shown) [Example 2-13, 4-{6-[4-(bicyclo[4.2.0]octa-1,3,5-trien-7-ylcarbonyl)piperazin-1-yl]-5-cyanopyridin-3-yl}-2-chloro-N,N-dimethylbenzamide], in assay [1], the Emax was 50% and the EC50 turned out to be 8050 nM. In assay [2], the Emax worked out at 108% and the EC50 was 57 nM.
Turning to `CN(C)C(=O)c1ccc(-c2cnc(N3CCN(S(=O)(=O)c4ccccc4Cl)CC3)c(C#N)c2)cc1Cl` [Example 1-11, 2-chloro-4-(6-{4-[(2-chlorophenyl)sulfonyl]piperazin-1-yl}-5-cyanopyridin-3-yl)-N,N-dimethylbenzamide], in assay [1], the Emax was determined as 51% and the EC50 amounted to 3410 nM. In assay [2], the Emax is 108% and the EC50 is 8 nM.
As for `CN(C)C(=O)c1ccc(-c2cnc(N3CCN(S(=O)(=O)c4ccccc4F)CC3)c(C#N)c2)cc1Cl` [Example 1-8, 2-chloro-4-(5-cyano-6-{4-[(2-fluorophenyl)sulfonyl]piperazin-1-yl}pyridin-3-yl)-N,N-dimethylbenzamide], the Emax in assay [1] was found to be 34%; in assay [2], 89%. Moreover, the EC50 in assay [1] amounted to 12100 nM; in assay [2], 17 nM.
As for `CN(C)C(=O)c1ccc(-c2cnc(N3CC4CCC(C3)N4C(=O)OC(C)(C)C)c(C#N)c2)cc1Cl` [Example 8-7, tert-butyl 3-{5-[3-chloro-4-(dimethylcarbamoyl)phenyl]-3-cyanopyridin-2-yl}-3,8-diazabicyclo[3.2.1]octane-8-carboxylate], the values for the Emax in assay [1] and in assay [2] were 52% and 71%, respectively. Also, the EC50 was 1640 nM in assay [1] and 31 nM in assay [2].
For `CN(C)C(=O)c1ccc(-c2cnc(N3CCN(C(=O)C(O)(CCc4ccccc4)C(F)(F)F)CC3)c(C#N)c2)cc1Cl` (stereo not shown) [Example 2-37, 2-chloro-4-(5-cyano-6-{4-[2-hydroxy-4-phenyl-2-(trifluoromethyl)butanoyl]piperazin-1-yl}pyridin-3-yl)-N,N-dimethylbenzamide] the same measures were 55%, 58%, 97600 nM and 735 nM.
Taken in the same sequence, the figures for `CN(C)C(=O)c1ccc(-c2cnc(N3CCN(C(=O)OC(C)(C)C)C(c4ccccc4)C3)c(C#N)c2)cc1Cl` (stereo not shown) [Example 8-12, tert-butyl 4-{5-[3-chloro-4-(dimethylcarbamoyl)phenyl]-3-cyanopyridin-2-yl}-2-phenylpiperazine-1-carboxylate] were 40%, 70%, 954 nM and 6 nM.
On to `Cc1cc(CC(=O)N2CCN(c3ncc(-c4ccc(C(=O)N(C)C)c(Cl)c4)cc3C#N)CC2)on1` [Example 2-8, 2-chloro-4-(5-cyano-6-{4-[(3-methylisoxazol-5-yl)acetyl]piperazin-1-yl}pyridin-3-yl)-N,N-dimethylbenzamide], for which, in assay [1], the Emax was determined as 5% and the “LXR alpha IP (nM)” value is “No IP”. Also, in assay [2], the Emax turned out to be 46% and the EC50 amounted to 4170 nM.
Take `CN(CCn1cccn1)C(=O)c1ccc(-c2cnc(N3CCN(C(=O)OC(C)(C)C)CC3)c(C#N)c2)cc1Cl` [Example 5-23, tert-butyl 4-[5-(3-chloro-4-{methyl[2-(1H-pyrazol-1-yl)ethyl]carbamoyl}phenyl)-3-cyanopyridin-2-yl]piperazine-1-carboxylate]: in assay [1], the Emax turned out to be 46% and the EC50 was determined as 19300 nM. For the same compound, in assay [2], the maximal response (Emax) was determined as 74% and the EC50 worked out at 282 nM.
As for `Cc1ccccc1COC(=O)N1CCN(c2ncc(-c3ccc(C(=O)N(C)C)c(Cl)c3)cc2C#N)CC1` [Example 3-4, 2-methylbenzyl 4-{5-[3-chloro-4-(dimethylcarbamoyl)phenyl]-3-cyanopyridin-2-yl}piperazine-1-carboxylate], the results for the Emax in assay [1] and in assay [2] were 122% and 86%, respectively. Besides, the EC50 is 2820 nM in assay [1] and 87 nM in assay [2].
